The values below come from ChEMBL document CHEMBL1201862, “PubChem BioAssay data set” (2004).

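Cultured in 96-well plates, cells were exposed to test compound for 48 hours across five concentrations. GI50 is the concentration that inhibits growth by half.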 Calls of active or inactive are those of the source. Rule as the data show it: active = GI50 up to about 1.1 µM and inactive = higher. Some results are limits rather than exact numbers.

Some test systems named below: COLO 205; A498; K562; SNB-75; A549; IGROV-1; HCT-15; CAKI-1; SK-MEL-2; DU-145; NCI-H23; OVCAR-4; ACHN; 786-0; MDA-MB-231; BT-549; MOLT-4; NCI-H460; HOP-62; MDA-MB-435.
Common to all, as to experiment: inhibition of tumour cell growth, NCI panel, 48 h

As for `CCCCCCSC[C@H](OC(C)=O)[C@@H](OC(C)=O)[C@@H](OC(C)=O)[C@@H](COC(C)=O)OC(C)=O`, the GI50 in the experiment on COLO 205 is 64.9 µM (inactive); in the experiment with A498, > 100 µM (inactive); with K562, 43.9 µM (inactive); in the experiment with SNB-75, > 100 µM (inactive); in the experiment on A549, 71.1 µM (inactive); in the experiment on IGROV-1 it was 83.8 µM (inactive). In addition, the GI50 in the experiment with HCT-15 is 62.5 µM; in the experiment with CAKI-1 it was > 100 µM (inactive); in the experiment on SK-MEL-2, > 100 µM (inactive); in the experiment with DU-145, > 100 µM (inactive); with NCI-H23, > 100 µM (inactive); with OVCAR-4, > 100 µM (inactive). For the same compound, the GI50 was > 100 µM (inactive) with ACHN; > 100 µM (inactive) with 786-0; > 100 µM (inactive) in the experiment with MDA-MB-231; > 100 µM (inactive) in the experiment on BT-549; 26.9 µM (inactive) in the experiment with MOLT-4; > 100 µM (inactive) with NCI-H460. The GI50 with HOP-62 and in the experiment with MDA-MB-435 was > 100 µM (inactive) each time.
Regarding `COC(=O)c1cc(C#N)[nH]c1-c1cc(Br)cs1`, the GI50 was 14.3 µM (inactive) in the experiment with COLO 205; 4.97 µM (inactive) in the experiment with A498; 20.3 µM (inactive) in the experiment with K562; 2.69 µM (inactive) in the experiment on SNB-75; 10.5 µM (inactive) with A549; 13.4 µM (inactive) with IGROV-1. Also, the GI50 was 15.1 µM in the experiment on HCT-15; 17.5 µM (inactive) in the experiment on CAKI-1; 12.8 µM (inactive) with SK-MEL-2; 13.3 µM (inactive) in the experiment with DU-145; 6.67 µM (inactive) with NCI-H23; 4.54 µM (inactive) in the experiment with OVCAR-4. Besides, the GI50 was 19.6 µM (inactive) in the experiment on ACHN; 19.1 µM (inactive) in the experiment on 786-0; 20.2 µM (inactive) in the experiment with MDA-MB-231; 12.9 µM (inactive) with BT-549; 17.9 µM (inactive) in the experiment with MOLT-4; 19.8 µM (inactive) with NCI-H460. The GI50 in the experiment with HOP-62 was 11.1 µM (inactive); with MDA-MB-435 it was 13.3 µM (inactive).
`COc1ccc(Nc2[nH]c(C(C)=O)c(N)c2C(=S)Nc2ccccc2)cc1`: the GI50 in the experiment on COLO 205 was 21.9 µM (inactive); in the experiment on A498, > 100 µM (inactive); with K562 it was 45.9 µM (inactive); in the experiment on SNB-75 it was > 100 µM (inactive); with A549, 41.9 µM (inactive); in the experiment on IGROV-1, 78.2 µM (inactive). The GI50 with HCT-15 is 35.6 µM; with CAKI-1, 87.3 µM (inactive); with SK-MEL-2, 32.9 µM (inactive); with DU-145, > 100 µM (inactive); in the experiment on NCI-H23, 65 µM (inactive); in the experiment with OVCAR-4 it was 36.5 µM (inactive). Besides, the GI50 was 77.6 µM (inactive) with ACHN; 42.5 µM (inactive) with 786-0; 52 µM (inactive) in the experiment on MDA-MB-231; 78 µM (inactive) in the experiment with BT-549; > 100 µM (inactive) in the experiment with MOLT-4; 48.3 µM (inactive) in the experiment on NCI-H460. In addition, the values for the GI50 in the experiment on HOP-62 and in the experiment with MDA-MB-435 were > 100 µM (inactive) and 49.4 µM (inactive), respectively.
Regarding `O=C1Nc2ccccc2/C1=N/Nc1ccc([N+](=O)[O-])cc1`, the GI50 in the experiment with COLO 205 is 93.5 µM (inactive); with A498 it was 15.2 µM (inactive); with K562, 17 µM (inactive); with SNB-75, 12.3 µM (inactive); in the experiment with A549 it was 24.4 µM (inactive); in the experiment on IGROV-1, 14.6 µM (inactive). For the same compound, the GI50 was 30.3 µM with HCT-15; 15.5 µM (inactive) in the experiment on CAKI-1; 58.2 µM (inactive) in the experiment with SK-MEL-2; 12.9 µM (inactive) with DU-145; 21.5 µM (inactive) in the experiment with NCI-H23; 14.4 µM (inactive) in the experiment on OVCAR-4. The GI50 in the experiment on ACHN is 13.5 µM (inactive); in the experiment on 786-0 it was 13.8 µM (inactive); in the experiment on MDA-MB-231, 24.8 µM (inactive); with BT-549, 16.5 µM (inactive); in the experiment with MOLT-4 it was 21.1 µM (inactive); in the experiment on NCI-H460 it was 30.1 µM (inactive). For the same compound, the GI50 in the experiment with HOP-62 is 14.6 µM (inactive); with MDA-MB-435, 40.3 µM (inactive).
Regarding `O=C(NCCCCCCNC(=O)c1cccc2ccccc12)Nc1cccc2ccccc12`, the GI50 in the experiment on COLO 205, in the experiment with A498, with K562, in the experiment with SNB-75, in the experiment on A549 and with IGROV-1 was > 100 µM (inactive) throughout. For the same compound, the GI50 with HCT-15 is greater than 100 µM; in the experiment on CAKI-1, > 100 µM (inactive); with SK-MEL-2, > 100 µM (inactive); in the experiment on DU-145, > 100 µM (inactive); in the experiment on NCI-H23, > 100 µM (inactive); in the experiment with OVCAR-4, > 100 µM (inactive). For the same compound, the GI50 in the experiment with ACHN, in the experiment with 786-0, in the experiment on MDA-MB-231, in the experiment with BT-549, in the experiment with MOLT-4 and in the experiment on NCI-H460 was > 100 µM (inactive) in each case. For the same compound, the GI50 with HOP-62 and in the experiment on MDA-MB-435 was > 100 µM (inactive) in each case.
In the case of `COc1ccc2c(c1)CCc1c-2n(CCN(C)C)c2ccc(OC)cc12`, the GI50 was 4.38 µM (inactive) with COLO 205; 17.6 µM (inactive) in the experiment with A498; 3.77 µM (inactive) with K562; 21.2 µM (inactive) with SNB-75; 15 µM (inactive) in the experiment on A549; 18.7 µM (inactive) with IGROV-1. Further, the GI50 with HCT-15 is 11.4 µM; in the experiment on CAKI-1, 22.1 µM (inactive); in the experiment with SK-MEL-2, 18.5 µM (inactive); with DU-145, 33.9 µM (inactive); in the experiment on NCI-H23, 16.3 µM (inactive); in the experiment with OVCAR-4, 25.4 µM (inactive). Besides, the GI50 with ACHN is 14.2 µM (inactive); in the experiment with 786-0 it was 27.2 µM (inactive); in the experiment on MDA-MB-231, 11.2 µM (inactive); in the experiment on BT-549, 29.1 µM (inactive); in the experiment with MOLT-4, 10.2 µM (inactive); in the experiment on NCI-H460, 30.4 µM (inactive). Besides, the GI50 in the experiment on HOP-62 was 16.1 µM (inactive); with MDA-MB-435 it was 6.32 µM (inactive).
For the compound `COc1ccc2c(NCCCCCCNc3c4ccccc4nc4cc(OC)ccc34)c3ccccc3nc2c1`, the GI50 in the experiment with COLO 205 is 0.0753 µM (active); in the experiment on A498, 0.516 µM (active); in the experiment on K562 it was 0.0334 µM (active); in the experiment on SNB-75, 0.175 µM (active); in the experiment on A549, 0.0716 µM (active); with IGROV-1, 0.075 µM (active). For the same compound, the GI50 in the experiment on HCT-15 was 1.29 µM; in the experiment on CAKI-1 it was 0.367 µM (active); in the experiment on SK-MEL-2, 0.364 µM (active); with DU-145, 0.204 µM (active); in the experiment with NCI-H23 it was 0.104 µM (active); in the experiment with OVCAR-4, 0.103 µM (active). Further, the GI50 is 0.163 µM (active) in the experiment with ACHN; 0.0753 µM (active) in the experiment with 786-0; 0.067 µM (active) in the experiment with MDA-MB-231; 1.3 µM (inactive) in the experiment on BT-549; 0.0146 µM (active) in the experiment on MOLT-4; 0.0272 µM (active) with NCI-H460. The GI50 with HOP-62 is 0.137 µM (active); with MDA-MB-435, 0.254 µM (active).
In the case of `COC(=O)NC1=NNC(=O)c2ccccc2N1`, the GI50 in the experiment with COLO 205, in the experiment on A498, in the experiment on K562, in the experiment with SNB-75, in the experiment with A549 and in the experiment with IGROV-1 was > 100 µM (inactive) in each case. The GI50 in the experiment on HCT-15 is greater than 100 µM; with CAKI-1 it was > 100 µM (inactive); with SK-MEL-2, > 100 µM (inactive); with DU-145, > 100 µM (inactive); with NCI-H23, > 100 µM (inactive); in the experiment with OVCAR-4 it was > 100 µM (inactive). Moreover, the GI50 with ACHN, with 786-0, with MDA-MB-231, in the experiment on BT-549, in the experiment on MOLT-4 and in the experiment on NCI-H460 was > 100 µM (inactive) each time. The GI50 with HOP-62 and with MDA-MB-435 was > 100 µM (inactive) in each case.
For the compound `CCC1c2[nH]c3ccccc3c2C[C@H]2C(=O)NC(CCCCNC(=O)OC(C)(C)C)C(=O)N12` (stereo not given in full), the GI50 was 29.9 µM (inactive) in the experiment on COLO 205; 52.8 µM (inactive) with A498; 35.8 µM (inactive) in the experiment on K562; 15.3 µM (inactive) with SNB-75; 34.3 µM (inactive) in the experiment with A549; 36.1 µM (inactive) in the experiment with IGROV-1. Further, the GI50 is 31 µM in the experiment on HCT-15; 25.9 µM (inactive) with CAKI-1; 26.6 µM (inactive) in the experiment with SK-MEL-2; 48.4 µM (inactive) in the experiment on DU-145; 25.9 µM (inactive) in the experiment on NCI-H23; 28.2 µM (inactive) with OVCAR-4. Besides, the GI50 in the experiment on ACHN was 35.9 µM (inactive); in the experiment on 786-0, 22.2 µM (inactive); in the experiment with MDA-MB-231, 32.7 µM (inactive); with BT-549, 24.1 µM (inactive); in the experiment with MOLT-4, 19.1 µM (inactive); with NCI-H460, 30.1 µM (inactive). The GI50 with HOP-62 was 35.4 µM (inactive); with MDA-MB-435, 20.5 µM (inactive).
Turning to `Cc1nc2ccccc2nc1-c1ccc(/N=[N+](\[O-])c2ccc(-c3nc4ccccc4nc3C)cc2)cc1`, the GI50 with COLO 205 was > 100 µM (inactive); in the experiment on A498, > 53.2 µM (inactive); in the experiment on K562, > 100 µM (inactive); in the experiment with SNB-75 it was 21 µM (inactive); in the experiment with A549, > 100 µM (inactive); with IGROV-1 it was > 82.4 µM (inactive). For the same compound, the GI50 with HCT-15 was greater than 100 µM; in the experiment with CAKI-1 it was > 100 µM (inactive); with SK-MEL-2, > 68.1 µM (inactive); in the experiment on DU-145, > 94.4 µM (inactive); with NCI-H23, > 83.4 µM (inactive); in the experiment with OVCAR-4 it was > 100 µM (inactive). Also, the GI50 with ACHN is > 55.7 µM (inactive); with 786-0 it was 45.5 µM (inactive); in the experiment with MDA-MB-231, 24.2 µM (inactive); with BT-549, > 85.9 µM (inactive); with MOLT-4, > 100 µM (inactive); in the experiment on NCI-H460, > 100 µM (inactive). In addition, the GI50 in the experiment with HOP-62 was 23.9 µM (inactive); with MDA-MB-435 it was > 100 µM (inactive).
